In ChEMBL document CHEMBL2203270, “POMA analyses as new efficient bioinformatics' platform to predict and optimise bioactivity of synthesized 3a,4-dihydro-3H-indeno[1,2-c]pyrazole-2-carboxamide/carbothioamide analogues” (Bioorg Med Chem Lett, 2012):
≈ marks a conversion by molar mass, not a printed value.

Columns and labels:
[1] = tested on: Human immunodeficiency virus 2; experiment: Antiviral activity against HIV-2 ROD infected in MT4 cells assessed as protection against virus-induced cytopathicity relative to control; assay type: functional; settings: Human immunodeficiency virus 2, ISOLATE ROD
[2] = tested on: Human immunodeficiency virus 2; experiment: Antiviral activity against HIV-2 ROD infected in MT4 cells assessed as inhibition of virus-induced cytopathicity; assay type: functional, organism-based; settings: Human immunodeficiency virus 2, ISOLATE ROD
[3] = tested on: Human immunodeficiency virus 1; experiment: Antiviral activity against HIV-1 3B infected in MT4 cells assessed as protection against virus-induced cytopathicity relative to control; assay type: functional; settings: Human immunodeficiency virus 1, 3B
[4] = tested on: Human immunodeficiency virus 1; experiment: Antiviral activity against HIV-1 3B infected in MT4 cells assessed as inhibition of virus-induced cytopathicity; assay type: functional, organism-based; settings: Human immunodeficiency virus 1, 3B
[5] = Cytotoxicity against mock-infected human MT4 cells assessed as decrease in cell viability by MTT assay; assay type: cell-based
Escherichia coli = experiment: Antimicrobial activity against Escherichia coli NCIM 5051 by broth dilution technique; assay type: functional
Bacillus subtilis = experiment: Antimicrobial activity against Bacillus subtilis NCIM 2439 by broth dilution technique; assay type: functional
Aspergillus niger = experiment: Antimicrobial activity against Aspergillus niger NCIM 1196 by broth dilution technique; assay type: functional
Pseudomonas aeruginosa = experiment: Antimicrobial activity against Pseudomonas aeruginosa ATCC 10145 by broth dilution technique; assay type: functional
Candida albicans = experiment: Antimicrobial activity against Candida albicans NCIM 3471 by broth dilution technique; assay type: functional
Staphylococcus aureus = experiment: Antimicrobial activity against Staphylococcus aureus NCIM 2079 by broth dilution technique; assay type: functional

## COc1cc2c(cc1OC)C1=NN(C(=O)Nc3ccc(Br)cc3)C(c3ccc(F)cc3)C1C2 (stereo not given)
[1]
  Emax: 16%
[2]
  IC50: > 108 µM
[3]
  Emax: 8%
[4]
  IC50: > 108 µM
[5]
  CC50: 108 µM

## COc1cc2c(cc1OC)C1=NN(C(=O)Nc3ccc(C)cc3C)C(c3ccncc3)C1C2 (stereo not given)
[1]
  Emax: 4%
[2]
  IC50: > 25.2 µM
[3]
  Emax: 1%
[4]
  IC50: > 25.2 µM
[5]
  CC50: 25.2 µM

## COc1cc2c(cc1OC)C1=NN(C(=O)Nc3ccc(C)cc3C)C(c3ccccc3)C1C2 (stereo not given)
[1]
  Emax: 7%
[2]
  IC50: > 33.4 µM
[3]
  Emax: 5%
[4]
  IC50: > 33.4 µM
[5]
  CC50: 33.4 µM

## COc1cc2c(cc1OC)C1=NN(C(N)=O)C(c3ccccc3Cl)C1C2 (stereo not given)
[1]
  Emax: 3%
Escherichia coli
  MBC: 256 mg/L (≈ 688 µM)
  MIC: 16 mg/L (≈ 43 µM)
Bacillus subtilis
  MBC: 256 mg/L (≈ 688 µM)
  MIC: 16 mg/L (≈ 43 µM)
[2]
  IC50: > 6.47 µM
[3]
  Emax: 3%
Aspergillus niger
  MFC: > 512 mg/L
  MIC: 256 mg/L (≈ 688 µM)
Pseudomonas aeruginosa
  MBC: 256 mg/L (≈ 688 µM)
  MIC: 16 mg/L (≈ 43 µM)
[4]
  IC50: > 6.47 µM
Candida albicans
  MFC: > 512 mg/L
  MIC: 128 mg/L (≈ 344 µM)
[5]
  CC50: 6.47 µM
Staphylococcus aureus
  MBC: 256 mg/L (≈ 688 µM)
  MIC: 16 mg/L (≈ 43 µM)

## COc1cc2c(cc1OC)C1=NN(C(=O)Nc3c(C)cccc3C)C(c3ccc(F)cc3)C1C2 (stereo not given)
[1]
  Emax: 4%
[2]
  IC50: > 9.36 µM
[3]
  Emax: 3%
[4]
  IC50: > 9.36 µM
[5]
  CC50: 9.36 µM

## COc1cc2c(cc1OC)C1=NN(C(=O)Nc3ccc(C)cc3C)C(c3ccccc3Cl)C1C2 (stereo not given)
[1]
  Emax: 5%
[2]
  IC50: > 11 µM
[3]
  Emax: 1%
[4]
  IC50: > 11 µM
[5]
  CC50: 11 µM

## COc1cc2c(cc1OC)C1=NN(C(=O)Nc3ccc(F)cc3)C(c3ccncc3)C1C2 (stereo not given)
[1]
  Emax: 2%
[2]
  IC50: > 31.9 µM
[3]
  Emax: 2%
[4]
  IC50: > 31.9 µM
[5]
  CC50: 31.9 µM

## COc1cc2c(cc1OC)C1=NN(C(=O)Nc3c(C)cccc3C)C(c3ccccc3Cl)C1C2 (stereo not given)
[1]
  Emax: 9%
[2]
  IC50: > 159 µM
[3]
  Emax: 4%
[4]
  IC50: > 159 µM
[5]
  CC50: 159 µM

## COc1ccc(C2C3Cc4cc(OC)c(OC)cc4C3=NN2C(=O)Nc2ccc(Br)cc2)cc1 (stereo not given)
[1]
  Emax: 5%
[2]
  IC50: > 136 µM
[3]
  Emax: 3%
[4]
  IC50: > 136 µM
[5]
  CC50: 136 µM

## COc1cc2c(cc1OC)C1=NN(C(=O)Nc3ccc(F)cc3)C(c3ccc(F)cc3)C1C2 (stereo not given)
[1]
  Emax: 14%
[2]
  IC50: > 119 µM
[3]
  Emax: 4%
[4]
  IC50: > 119 µM
[5]
  CC50: 119 µM

## COc1cc2c(cc1OC)C1=NN(C(=O)Nc3ccc(Cl)cc3)C(c3ccncc3)C1C2 (stereo not given)
[1]
  Emax: 5%
[2]
  IC50: > 4.83 µM
[3]
  Emax: 4%
[4]
  IC50: > 4.83 µM
[5]
  CC50: 4.83 µM

## COc1cc2c(cc1OC)C1=NN(C(=O)Nc3ccc(F)c(Cl)c3)C(c3ccncc3)C1C2 (stereo not given)
[1]
  Emax: 2%
[2]
  IC50: > 29.5 µM
[3]
  Emax: 4%
[4]
  IC50: > 29.5 µM
[5]
  CC50: 29.5 µM

## COc1cc2c(cc1OC)C1=NN(C(=O)Nc3c(C)cccc3C)C(c3ccccc3)C1C2 (stereo not given)
[1]
  Emax: 12%
[2]
  IC50: > 211 µM
[3]
  Emax: 4%
[4]
  IC50: > 211 µM
[5]
  CC50: 211 µM

## COc1cc2c(cc1OC)C1=NN(C(=O)Nc3ccc(Br)cc3)C(c3ccccc3Cl)C1C2 (stereo not given)
[1]
  Emax: 2%
[2]
  IC50: > 11.5 µM
[3]
  Emax: 2%
[4]
  IC50: > 11.5 µM
[5]
  CC50: 11.5 µM

## COc1cc2c(cc1OC)C1=NN(C(=O)Nc3ccc(Br)cc3)C(c3ccccc3)C1C2 (stereo not given)
[1]
  Emax: 10%
[2]
  IC50: > 86 µM
[3]
  Emax: 3%
[4]
  IC50: > 86 µM
[5]
  CC50: 86 µM

## COc1ccc(C2C3Cc4cc(OC)c(OC)cc4C3=NN2C(=O)Nc2ccc(C)cc2C)cc1OC (stereo not given)
[1]
  Emax: 16%
[2]
  IC50: > 145 µM
[3]
  Emax: 16%
[4]
  IC50: > 145 µM
[5]
  CC50: 145 µM

## Cc1cn([C@H]2C[C@H](N=[N+]=[N-])[C@@H](CO)O2)c(=O)[nH]c1=O [ZIDOVUDINE]
[1]
  Emax: 66%
[3]
  Emax: 90%
[5]
  CC50: > 93.5 µM

## COc1ccc(C2C3Cc4cc(OC)c(OC)cc4C3=NN2C(=O)Nc2c(C)cccc2C)cc1 (stereo not given)
[1]
  Emax: 6%
[2]
  IC50: > 169 µM
[3]
  Emax: 5%
[4]
  IC50: > 169 µM
[5]
  CC50: 169 µM
